From ChEMBL document CHEMBL1201862, “PubChem BioAssay data set” (2004)
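Test compounds were applied to cells in 96-well plates for 48 hours at 5 doses. The concentration for 50% growth inhibition is given as GI50.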 The source made the active and inactive calls. Cut-off read from the data, not from the text of the source: active = GI50 up to about 1.1 µM and inactive = higher.

Assays:
Experiment in all cases: DTP human tumour cell line panel, 48 h
786-0 = system: 786-0
A498 = system: A498
A549 = system: A549
ACHN = system: ACHN
BT-549 = system: BT-549
CAKI-1 = system: CAKI-1
CCRF-CEM = system: CCRF-CEM
COLO 205 = system: COLO 205
DU-145 = system: DU-145
EKVX = system: EKVX
HCC 2998 = system: HCC 2998
HCT-116 = system: HCT-116
HCT-15 = system: HCT-15
HL-60 = system: HL-60
HOP-62 = system: HOP-62
HOP-92 = system: HOP-92
HT-29 = system: HT-29
Hs-578T = system: Hs-578T
IGROV-1 = system: IGROV-1
K562 = system: K562
KM12 = system: KM12
LOX IMVI = system: LOX IMVI
M14 = system: M14
MCF7 = system: MCF7
MDA-MB-231 = system: MDA-MB-231
MDA-MB-435 = system: MDA-MB-435
MOLT-4 = system: MOLT-4
Malme-3M = system: Malme-3M
NCI-H226 = system: NCI-H226
NCI-H23 = system: NCI-H23
NCI-H460 = system: NCI-H460
NCI-H522 = system: NCI-H522
NCI/ADR-RES = system: NCI/ADR-RES
OVCAR-3 = system: OVCAR-3
OVCAR-4 = system: OVCAR-4
OVCAR-5 = system: OVCAR-5
OVCAR-8 = system: OVCAR-8
PC-3 = system: PC-3
RPMI-8226 = system: RPMI-8226
RXF 393 = system: RXF 393
SF-268 = system: SF-268
SF-295 = system: SF-295
SF-539 = system: SF-539
SK-MEL-28 = system: SK-MEL-28
SK-MEL-2 = system: SK-MEL-2
SK-MEL-5 = system: SK-MEL-5
SN12C = system: SN12C
SNB-19 = system: SNB-19
SNB-75 = system: SNB-75
SR = system: SR
T47D = system: T47D
TK-10 = system: TK-10
U-251 = system: U-251
UACC-257 = system: UACC-257
UACC-62 = system: UACC-62
UO-31 = system: UO-31
SK-OV-3 = system: SK-OV-3
SW-620 = system: SW-620

CC(=O)NNC1=NN(C(C)=O)C2(S1)C(=O)Nc1ccc(Br)cc12 (centres undefined)
GI50 (786-0): > 100 µM (inactive) | GI50 (A498): > 100 µM (inactive) | GI50 (A549): > 100 µM (inactive) | GI50 (ACHN): > 100 µM (inactive) | GI50 (BT-549): 59.6 µM (inactive) | GI50 (CAKI-1): > 100 µM (inactive) | GI50 (CCRF-CEM): > 100 µM (inactive) | GI50 (COLO 205): > 10 µM (inactive) | GI50 (DU-145): > 100 µM (inactive) | GI50 (EKVX): > 100 µM (inactive) | GI50 (HCC 2998): > 100 µM (inactive) | GI50 (HCT-116): > 100 µM (inactive) | GI50 (HCT-15): > 100 µM | GI50 (HL-60): > 100 µM (inactive) | GI50 (HOP-62): > 100 µM (inactive) | GI50 (HOP-92): 65.5 µM (inactive) | GI50 (HT-29): > 100 µM (inactive) | GI50 (Hs-578T): > 100 µM (inactive) | GI50 (IGROV-1): 35.9 µM (inactive) | GI50 (K562): > 100 µM (inactive) | GI50 (KM12): > 100 µM (inactive) | GI50 (LOX IMVI): > 100 µM (inactive) | GI50 (M14): > 100 µM (inactive) | GI50 (MCF7): > 100 µM (inactive) | GI50 (MDA-MB-231): > 100 µM (inactive) | GI50 (MDA-MB-435): > 100 µM (inactive) | GI50 (MOLT-4): > 100 µM (inactive) | GI50 (Malme-3M): > 100 µM (inactive) | GI50 (NCI-H226): > 100 µM (inactive) | GI50 (NCI-H23): > 100 µM (inactive) | GI50 (NCI-H460): 93.3 µM (inactive) | GI50 (NCI-H522): > 100 µM (inactive) | GI50 (NCI/ADR-RES): > 100 µM (inactive) | GI50 (OVCAR-3): > 100 µM (inactive) | GI50 (OVCAR-4): 78.3 µM (inactive) | GI50 (OVCAR-5): > 100 µM (inactive) | GI50 (OVCAR-8): > 100 µM (inactive) | GI50 (PC-3): > 100 µM (inactive) | GI50 (RPMI-8226): > 100 µM (inactive) | GI50 (RXF 393): > 100 µM (inactive) | GI50 (SF-268): > 100 µM (inactive) | GI50 (SF-295): > 100 µM (inactive) | GI50 (SF-539): > 100 µM (inactive) | GI50 (SK-MEL-28): > 100 µM (inactive) | GI50 (SK-MEL-2): > 100 µM (inactive) | GI50 (SK-MEL-5): > 100 µM (inactive) | GI50 (SN12C): > 100 µM (inactive) | GI50 (SNB-19): > 100 µM (inactive) | GI50 (SNB-75): > 100 µM (inactive) | GI50 (SR): > 100 µM (inactive) | GI50 (T47D): 22 µM (inactive) | GI50 (TK-10): > 100 µM (inactive) | GI50 (U-251): > 100 µM (inactive) | GI50 (UACC-257): > 100 µM (inactive) | GI50 (UACC-62): 79.1 µM (inactive) | GI50 (UO-31): 39.4 µM (inactive)

Cc1nc(=O)n2c(c1C(=O)Nc1ccc(Cl)cc1)NCC2
GI50 (A498): > 72.8 µM (inactive) | GI50 (HOP-92): > 79.4 µM (inactive)

CCC(=O)Nc1ccc(/N=N/N(C)C)cc1
GI50 (786-0): > 100 µM (inactive) | GI50 (A498): > 100 µM (inactive) | GI50 (A549): > 100 µM (inactive) | GI50 (ACHN): > 100 µM (inactive) | GI50 (BT-549): > 100 µM (inactive) | GI50 (COLO 205): 63.4 µM (inactive) | GI50 (DU-145): > 100 µM (inactive) | GI50 (EKVX): > 100 µM (inactive) | GI50 (HCC 2998): 1.66 µM (inactive) | GI50 (HCT-116): > 100 µM (inactive) | GI50 (HCT-15): > 100 µM | GI50 (HL-60): 42.8 µM (inactive) | GI50 (HOP-62): > 100 µM (inactive) | GI50 (HOP-92): 12.4 µM (inactive) | GI50 (HT-29): > 100 µM (inactive) | GI50 (Hs-578T): > 100 µM (inactive) | GI50 (IGROV-1): 2.87 µM (inactive) | GI50 (K562): 50.2 µM (inactive) | GI50 (LOX IMVI): 50.9 µM (inactive) | GI50 (M14): > 100 µM (inactive) | GI50 (MCF7): > 100 µM (inactive) | GI50 (MDA-MB-231): > 100 µM (inactive) | GI50 (MDA-MB-435): > 100 µM (inactive) | GI50 (MOLT-4): 6.73 µM (inactive) | GI50 (Malme-3M): 2.13 µM (inactive) | GI50 (NCI-H226): > 100 µM (inactive) | GI50 (NCI-H23): 7.26 µM (inactive) | GI50 (NCI-H460): > 100 µM (inactive) | GI50 (NCI-H522): 14.4 µM (inactive) | GI50 (NCI/ADR-RES): > 100 µM (inactive) | GI50 (OVCAR-4): > 100 µM (inactive) | GI50 (OVCAR-5): > 100 µM (inactive) | GI50 (OVCAR-8): > 100 µM (inactive) | GI50 (PC-3): > 100 µM (inactive) | GI50 (RXF 393): > 100 µM (inactive) | GI50 (SF-268): > 100 µM (inactive) | GI50 (SF-539): > 100 µM (inactive) | GI50 (SK-MEL-28): > 100 µM (inactive) | GI50 (SK-MEL-2): > 100 µM (inactive) | GI50 (SK-MEL-5): 53.7 µM (inactive) | GI50 (SK-OV-3): > 100 µM (inactive) | GI50 (SN12C): > 100 µM (inactive) | GI50 (SNB-19): > 100 µM (inactive) | GI50 (SNB-75): > 100 µM (inactive) | GI50 (SW-620): > 100 µM (inactive) | GI50 (T47D): 6.64 µM (inactive) | GI50 (U-251): > 100 µM (inactive) | GI50 (UACC-257): > 100 µM (inactive) | GI50 (UACC-62): > 100 µM (inactive) | GI50 (UO-31): > 100 µM (inactive)

CCOC(=O)c1ccc2nc(NC(=O)COC(=O)CSc3nc(C)cc(C)n3)sc2c1
GI50 (786-0): 97.1 µM (inactive) | GI50 (A498): 34 µM (inactive) | GI50 (A549): 42.9 µM (inactive) | GI50 (ACHN): 46.5 µM (inactive) | GI50 (BT-549): 31.2 µM (inactive) | GI50 (CAKI-1): 26.3 µM (inactive) | GI50 (CCRF-CEM): 1.52 µM (inactive) | GI50 (COLO 205): 99.1 µM (inactive) | GI50 (DU-145): 28.3 µM (inactive) | GI50 (EKVX): 18.5 µM (inactive) | GI50 (HCT-116): 77.3 µM (inactive) | GI50 (HCT-15): 46.6 µM | GI50 (HL-60): 15.8 µM (inactive) | GI50 (HOP-62): 13.7 µM (inactive) | GI50 (HOP-92): 24.8 µM (inactive) | GI50 (HT-29): 66.2 µM (inactive) | GI50 (Hs-578T): 36 µM (inactive) | GI50 (IGROV-1): 27 µM (inactive) | GI50 (K562): > 100 µM (inactive) | GI50 (KM12): > 100 µM (inactive) | GI50 (LOX IMVI): 48 µM (inactive) | GI50 (M14): 41.6 µM (inactive) | GI50 (MCF7): 35.9 µM (inactive) | GI50 (MDA-MB-231): 66.4 µM (inactive) | GI50 (MDA-MB-435): > 100 µM (inactive) | GI50 (MOLT-4): 42.5 µM (inactive) | GI50 (Malme-3M): > 100 µM (inactive) | GI50 (NCI-H23): > 100 µM (inactive) | GI50 (NCI-H460): 38.7 µM (inactive) | GI50 (NCI-H522): 64 µM (inactive) | GI50 (NCI/ADR-RES): 48.4 µM (inactive) | GI50 (OVCAR-3): 25.3 µM (inactive) | GI50 (OVCAR-4): 42.9 µM (inactive) | GI50 (OVCAR-5): 20.4 µM (inactive) | GI50 (OVCAR-8): 57.9 µM (inactive) | GI50 (PC-3): 40.2 µM (inactive) | GI50 (RPMI-8226): 53 µM (inactive) | GI50 (RXF 393): 30.3 µM (inactive) | GI50 (SF-268): 67.8 µM (inactive) | GI50 (SF-295): 36.6 µM (inactive) | GI50 (SF-539): 26.1 µM (inactive) | GI50 (SK-MEL-28): 97.3 µM (inactive) | GI50 (SK-MEL-2): > 100 µM (inactive) | GI50 (SK-MEL-5): 53.3 µM (inactive) | GI50 (SK-OV-3): 32.5 µM (inactive) | GI50 (SN12C): 39 µM (inactive) | GI50 (SNB-19): 37.8 µM (inactive) | GI50 (SNB-75): 16.4 µM (inactive) | GI50 (SR): 52.7 µM (inactive) | GI50 (SW-620): > 100 µM (inactive) | GI50 (T47D): 16.7 µM (inactive) | GI50 (TK-10): 29.3 µM (inactive) | GI50 (U-251): 48.6 µM (inactive) | GI50 (UACC-257): > 100 µM (inactive) | GI50 (UACC-62): 25.8 µM (inactive) | GI50 (UO-31): 13.9 µM (inactive)
